Here are results for 43 molecules from patent US5840918A, “Isoprenyl transferase inhibitors” (Eisai Co., Ltd., priority 1997, dated 1998).

For assay [1], the target named is T1, FTase (Bos taurus, UniProt P29702+P49355).
T1 construct: bovine brain by inference from the cited Moores et al. 1991
As to the kind of experiment: Inhibition of FTase-mediated prenylation (in vitro prenylation assay). In kind it is biochemical. As to conditions: Table 1; partially purified FTase, 3 μM recombinant H-ras, 440 nM [3H]FPP, 15 min 37° C. An excerpt:
(§1) Nanomolar concentrations of the indicated compounds were sufficient to inhibit farnesylation of ras proteins in vitro. For screening candidate compounds useful for the treatment of ras-associated tumors, the FTase assay is preferred. […] Substitutions which confer GGTase specificity as taught herein also produced potent inhibitors of GGTase.

The subject of assay [2] is H-ras farnesylation in H-ras (61L) transformed NIH3T3 fibroblasts. As to the kind of experiment: Inhibition of H-ras farnesylation in whole cells (Western blot). It counts as cell-based, mouse. The method, then: The ability of compounds of the invention to inhibit H-ras farnesylation and rap1 geranylgeranylation in whole cells was determined. H-ras (61L) transformed NIH3T3 fibroblasts were generously provided by C. Der, Univ. N. Carolina. These fibroblasts were treated for 24 h with 50 μM lovastatin (control) or the indicated concentrations of inhibitor. The cells were lysed in 1% NP-40, 5 mM Tris-HCl (pH 8.0), 5 mM EDTA, 0.1 mM N-tosyl-L-phenylalanine chloromethyl ketone, 0.1 mM N-tosyl-L-lysine chloromethyl ketone, and 1 mM phenylmethylsulfonyl fluoride. The lysate was centrifuged (15000×g, 5 min.) and the supernatant was used as a cell extract. […] After transfer to IMMOBILON P™ membrane (Millipore), the blots were probed with LA069 mouse monoclonal antibody to H-ras (Quality Biotech), or rabbit polyclonal antibody to rap1/Krev (Santa Cruz Biotechnology). All Western blots were developed using ECL chemiluminescent reagents (Amersham).

Assay [3] concerns the target GGTase. Description: Inhibition of GGTase-mediated prenylation (in vitro prenylation assay). It counts as biochemical. The settings on record: Table 1; partially purified GGTase, 5 μM recombinant H-ras (61L, CAIL), 1 μM [3H] geranylgeranyl diphosphate.
Excerpt: as §1

Where [4] appears, read: Mus musculus, NIH3T3, 24 h, Table 2.

Bounds are passed on as bounds.

`CC(C)[C@H](/C=C/C(N)CS)COC(Cc1ccccc1)C(=O)N[C@@H](CCS(C)(=O)=O)C(=O)O` (stereo partly shown) [PE031]: the IC50 in assay [1] came out at 20 nM; in assay [2] (setting [4]), 330 nM; in assay [3] it was 140 nM.
Taken in the same sequence, the figures for `CSCC[C@H](NC(=O)C(/C=C/C(/C=C/CCS)C(C)C)Cc1ccccc1)C(=O)O` (single isomer, unassigned) [PD112] were 2220 nM, 193000 nM and 8050 nM.
The corresponding values for `CSCC[C@H](NC(=O)C(/C=C/[C@@H](/C=C/[C@@H](N)CS)C(C)C)C(C)C)C(=O)NC(C)(C)C` (stereo partly shown) [PD222] are 710 nM, > 50000 nM and 3040 nM.
Taken in the same sequence, the figures for `CSCC[C@H](NC(=O)C(Cc1ccccc1)NC[C@@H](/C=C/C(N)CS)C(C)C)C(=O)O` (stereo partly shown) [PA041] were 2.5 nM, 3500 nM and 56 nM.
`COC(=O)[C@H](CCSC)N(C)C(=O)C(/C=C\[C@@H](/C=C/C(N)CS)C(C)C)Cc1ccccc1` (stereo partly shown) [PD451]: the IC50 in assay [1] amounted to 146 nM; in assay [2] (setting [4]), 400 nM; in assay [3] it was 1110 nM.
The corresponding values for `CCc1ccc(C/C=C/C(N)CS)cc1C(=O)N[C@@H](CCSC)C(=O)O` (stereo partly shown) [PM062] are 9 nM, 360 nM and 420 nM.
As to `COc1ccc(C/C=C/C(N)CS)cc1C(=O)N[C@@H](CCSC)C(=O)O` (stereo partly shown) [PM122], the figures for the IC50 in assay [1], in assay [2] (setting [4]) and in assay [3] were 3 nM, 23400 nM and 2200 nM, respectively.
With `COC(=O)[C@H](CCS(C)(=O)=O)NC(=O)C(/C=C/[C@@H](/C=C/C(N)CS)C(C)C)C(C)C` (stereo partly shown) [PD132], the IC50 was 245 nM in assay [1], 2600 nM in assay [2] (setting [4]) and 4770 nM in assay [3].
The corresponding values for `CC(C)C[C@H](NC(=O)c1cc(C/C=C/C(N)CS)ccc1-c1ccccc1)C(=O)O` (stereo partly shown) [PM131] are 605 nM, > 250000 nM and 2.4 nM.
Consider `CSCCC(NC(=O)C(/C=C\[C@@H](/C=C/C1CSC(C)(C)N1)C(C)C)Cc1ccccc1)C(=O)O` (stereo partly shown) [PD321], for which the IC50 in assay [1] was 25 nM; in assay [2] (setting [4]) it was 100 to 1000 nM; in assay [3], 14 nM.
The corresponding values for `CCc1ccc(C/C=C/C(N)CS)cc1C(=O)N[C@@H](CCSC)C(=O)OC` (stereo partly shown) [PM212] are 56 nM, 45 nM and 1840 nM.
Take `CC(C)[C@H](/C=C/C(N)CS)CN(C)C(Cc1cccs1)C(=O)N[C@@H](CCS(C)(=O)=O)C(=O)O` (stereo partly shown) [PA121]: the values for the IC50 in assay [1], in assay [2] (setting [4]) and in assay [3] were 15 nM, 580 nM and 380 nM, respectively.
The corresponding values for `CSCC[C@H](NC(=O)C(/C=C/[C@@H](/C=C/C(N)CS)C(C)C)C(C)C)C(=O)N(C)Cc1ccccn1` (stereo partly shown) [PD072] are 42 nM, 7400 nM and 680 nM.
Taken in the same sequence, the figures for `CC(C)COC(=O)[C@H](CCS(C)(=O)=O)NC(=O)c1cc(C/C=C/[C@@H](N)CS)ccc1-c1ccsc1` [PM072] were 160 nM, 2400 nM and 3960 nM.
The corresponding values for `COC(=O)[C@H](CCSC)NC(=O)c1cc(CCCC(N)CS)ccc1-c1ccsc1` (stereo partly shown) [PM132] are 119 nM, 1600 nM and 1630 nM.
On to `CSCC[C@H](NC(=O)c1cc(C/C=C\C(N)CS)ccc1-c1ccccc1)C(=O)O` (stereo partly shown) [PM101], for which the IC50 was determined as 24 nM in assay [1], 14600 nM in assay [2] (setting [4]) and 793 nM in assay [3].
The corresponding values for `CS(=O)(=O)CC[C@H](NC(=O)c1cc(C/C=C/C(N)CS)ccc1-c1ccccc1)C(=O)O` (stereo partly shown) [PM161] are 0.9 nM, 18900 nM and 2140 nM.
For `CSCC[C@H](NC(=O)c1cc(C/C=C/C(N)CS)ccc1-c1cccs1)C(=O)O` (stereo partly shown) [PM182], the concentration for half-maximal inhibition (IC50) in assay [1] came out at 17 nM; in assay [2] (setting [4]), 2700 nM; in assay [3], 520 nM.
Taken in the same sequence, the figures for `CSCC[C@H](NC(=O)c1cc(C/C=C/C(N)CS)ccc1-c1cccc(C(F)(F)F)c1)C(=O)O` (stereo partly shown) [PM111] were 24 nM, > 100000 nM and 246 nM.
Take `CC(C)CC(NC(=O)C(/C=C\[C@@H](/C=C/C(N)CS)C(C)C)Cc1ccccc1)C(=O)O` (stereo partly shown) [PD381]: the IC50 in assay [1] came out at 80 nM.
As for `CC(C)C(/C=C/[C@@H](/C=C/C(N)CS)C(C)C)C(=O)N[C@H]1CCOC1=O` (stereo partly shown) [PD092], the IC50 in assay [1] was 52 nM; in assay [2] (setting [4]), 780 nM; in assay [3], 3200 nM.
Taken in the same sequence, the figures for `COC(=O)[C@H](CCSC)NC(=O)C(/C=C/[C@@H](/C=C/C(N)CS)C(C)C)C(C)C` (stereo partly shown) [PD411] were 560 nM, 220 nM and 8400 nM.
The corresponding values for `CSCC[C@H](NC(=O)C(/C=C/[C@@H](/C=C/C(N)CS)C(C)(C)C)C(C)C)C(=O)O` (stereo partly shown) [PD142] are 42 nM, 7300 nM and 2120 nM.
Take `COC(=O)[C@H](CCSC)NCc1cc(C/C=C/[C@@H](N)CS)ccc1-c1ccccc1` [PM031]: the IC50 in assay [1] came out at 115 nM; in assay [2] (setting [4]), 25000 nM; in assay [3], 1400 nM.
For `CC(C)[C@H](/C=C/C(N)CS)CNC(Cc1cccs1)C(=O)N[C@@H](CCS(C)(=O)=O)C(=O)O` (stereo partly shown) [PA111], the IC50 was determined as 13 nM in assay [1]; 130 nM in assay [2] (Mus musculus, NIH3T3, Table 2, 24 h); 270 nM in assay [3].
With `COC(=O)[C@H](CCS(C)(=O)=O)NC(=O)c1cc(C/C=C/C(N)CS)ccc1-c1ccsc1` (stereo partly shown) [PM202], the IC50 stood at 16 nM in assay [1], 1200 nM in assay [2] (setting [4]) and 7420 nM in assay [3].
For `COC(=O)C(CCSC)NC(=O)C(/C=C\[C@@H](/C=C/C(N)CS)C(C)C)Cc1ccccc1` (stereo partly shown) [PD371], the IC50 in assay [1] stood at 38 nM; in assay [2] (setting [4]) it was 90 nM.
Consider `CSCC[C@H](NC(=O)C(/C=C/[C@@H](/C=C/C(N)CS)Cc1ccccc1)C(C)C)C(=O)O` (stereo partly shown) [PD391], for which the figures for the IC50 in assay [1] and in assay [2] (setting [4]) were 29 nM and 16400 nM, respectively.
Take `CSCCC(NC(=O)C(/C=C\C(/C=C/C(N)CS)C(C)C)Cc1ccccc1)C(=O)O` (stereo not shown) [PD311]: the IC50 is 69 nM in assay [1], 100 to 1000 nM in assay [2] (setting [4]) and 570 nM in assay [3].
The corresponding values for `CSCC[C@H](NC(=O)c1cc(C/C=C/C(N)CS)ccc1-c1ccco1)C(=O)O` (stereo partly shown) [PM052] are 0.3 nM, 2600 nM and 190 nM.
Taken in the same sequence, the figures for `CSCC[C@H](NC(=O)C(NC[C@@H](/C=C/C(N)CS)C(C)C)C(C)C)C(=O)O` (stereo partly shown) [PA061] were 2.1 nM, 580 nM and 48 nM.
Consider `CSCC[C@H](NC(=O)C(/C=C/C(/C=C/CCS)C(C)C)Cc1ccccc1)C(=O)O` (stereo partly shown) [PD162], for which the results for the IC50 in assay [1], in assay [2] (setting [4]) and in assay [3] were 260 nM, 326000 nM and 4570 nM, respectively.
As for `CSCC[C@H](NCC(/C=C\[C@@H](/C=C/C(N)CS)C(C)C)Cc1ccccc1)C(=O)O` (stereo partly shown) [PD431], the IC50 in assay [1] came to 6 nM; in assay [3], 1080 nM.
`NC(/C=C/Cc1ccc(-c2ccsc2)c(C(=O)N[C@@H](Cc2cccs2)C(=O)O)c1)CS` (stereo partly shown) [PM152]: the IC50 in assay [1] was 38 nM; in assay [2] (setting [4]), 40300 nM; in assay [3], 270 nM.
With `CSCC[C@H](NCc1cc(C/C=C/C(N)CS)ccc1-c1ccccc1)C(=O)O` (stereo partly shown) [PM121], the IC50 in assay [1] is 22 nM; in assay [2] (setting [4]), 23400 nM; in assay [3], 1720 nM.
Regarding `CSCC[C@H](NC(=O)c1cc(CCCC(N)CS)ccc1-c1ccsc1)C(=O)O` (stereo partly shown) [PM162], the results for the IC50 in assay [1], in assay [2] (setting [4]) and in assay [3] were 1.8 nM, 13100 nM and 120 nM, respectively.
Consider `CSCC[C@H](NC(=O)C(Cc1cccs1)NC[C@@H](/C=C/C(N)CS)C(C)C)C(=O)O` (stereo partly shown) [PA031], for which the IC50 is 3.6 nM in assay [1], 1000 nM in assay [2] (setting [4]) and 215 nM in assay [3].
As for `COC(=O)[C@H](CCS(C)(=O)=O)NC(=O)C(Cc1ccccc1)OC[C@@H](/C=C/C(N)CS)C(C)C` (stereo partly shown) [PE061], the IC50 in assay [1] worked out at 60 nM; in assay [2] (setting [4]) it was 1100 nM; in assay [3], 6300 nM.
In the case of `CSCCC(=O)NCC(/C=C/[C@@H](/C=C/[C@@H](N)CS)C(C)C)C(C)C` (stereo partly shown) [PD082], in assay [1], the IC50 came to 1570 nM.
On to `CSCC[C@H](NC(=O)C(/C=C/C(/C=C/CCS)C(C)C)Cc1ccccc1)C(=O)O` (single isomer, unassigned) [PD052], for which the IC50 in assay [1] came to 2810 nM; in assay [3], 8050 nM.
Regarding `CC(C)[C@@H](/C=C\C(Cc1ccccc1)C(=O)NC(CO)C(=O)O)/C=C/C(N)CS` (stereo partly shown) [PD361], the IC50 in assay [1] was determined as 0.1 nM; in assay [2] (setting [4]), 3500 nM.
Consider `CSCC[C@H](NC(=O)C(/C=C/[C@@H](/C=C/C(N)CS)C(C)C)C(C)C)C(=O)O` (stereo partly shown) [PD341], for which the values for the IC50 in assay [1] and in assay [2] (setting [4]) were 0.2 nM and 290 nM, respectively.
On to `C[C@H](/C=C/C(N)CS)/C=C/C(Cc1ccccc1)C(=O)N[C@@H](CCC(N)=O)C(=O)O` (stereo partly shown) [PD102], for which the IC50 in assay [1] was determined as 394 nM; in assay [2] (Table 2, 24 h) it was 75000 nM.
